Where two headings read alike, the source gives them in different places.
Key:
MCR-1 = molecular target: T1, MCR-1 (Homo sapiens, UniProt Q01726); assay: Melanocortin receptor binding assay, competition with 125I-HP 467, HEK 293 cells expressing hMCR-1; settings: for IC50: read-out: MC-1 IC50
T1 construct: expressed in transfected cells; host or cells: HEK 293
Summary of the method: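 Test compounds compete on intact HEK 293 cells carrying hMCR-1 (2×10^4 per tube) or hMCR-4 (4×10^3 per tube), suspended in PBS, 10% calf serum, 1 mM CaCl2.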

MCR-4 = molecular target: T2, MCR-4 (Homo sapiens, UniProt P32245); assay: Melanocortin receptor binding assay, competition with 125I-HP 467, HEK 293 cells expressing hMCR-4; settings: for IC50: read-out: MC-4 IC50
T2 construct: expressed in transfected cells; host or cells: HEK 293
T2 sequence (P32245 whole entry): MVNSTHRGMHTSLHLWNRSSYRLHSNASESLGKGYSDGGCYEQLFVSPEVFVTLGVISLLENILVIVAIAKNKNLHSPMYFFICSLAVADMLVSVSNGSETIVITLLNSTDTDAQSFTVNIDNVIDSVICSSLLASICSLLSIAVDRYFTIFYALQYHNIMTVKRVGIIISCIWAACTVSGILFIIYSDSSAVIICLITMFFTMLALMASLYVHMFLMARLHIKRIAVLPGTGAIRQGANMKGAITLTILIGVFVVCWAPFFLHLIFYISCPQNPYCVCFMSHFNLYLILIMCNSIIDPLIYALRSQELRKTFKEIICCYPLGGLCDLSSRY
Protocol: All cell culture media and reagents were obtained from GibcoBRL (Gaithersburg Md.), except for COSMIC CALF SERUM (HyClone; Logan Utah).
Cells were suspended in PBS, 10% COSMIC CALF SERUM and 1 mM CaCl2. Cell suspensions were prepared at a density of 2×10^4 cells/ml for HEK 293 cells expressing hMCR-3, hMCR-4 or hMCR-5, and 1×10^5 cells/ml for HEK 293 cells expressing hMCR-1. Suspensions were placed in a water bath and allowed to warm to 37° C. for 1 hr.
Binding assays were performed in a total volume of 250 μl for HEK 293 cells. […] To each tube was added 4×10^3 HEK 293 cells expressing hMCR-3, hMCR-4 or hMCR-5, or 2×10^4 cells expressing hMCR-1. Assays were incubated for 2.5 hr at 37° C.
GF/B filter plates were prepared by soaking for at least one hour in 5 mg/ml BSA and 10 mM CaCl2. Assays were filtered using a Brandel 96-well cell harvester (Brandel Inc.; Gaithersburg, Md.). The filters were washed four times with cold 50 mM Tris, pH 7.4, the filter plates were dehydrated for 2 hr and 35 μl of MICROSCINT was added to each well. Filter plates were counted using a Packard Topcount (Packard Instrument Co.) and data analyzed using GraphPad PRISM v2.0 (GraphPad Software Inc.; San Diego Calif.) and Microsoft EXCEL v5.0a (Microsoft Corp.; Redmond Wash.).
To assay isoquinoline compounds, binding assays were performed in duplicate in a 96 well format. […] A 0.2 ml aliquot of suspended cells was added to each well to give the cell numbers indicate above, and the cells were incubated at 37° C. for 2.5 hr. Cells were harvested on GF/B filter plates as described above and counted.

[1] = TRG 2414 library, inhibition of binding of 125I-HP 467, HEK 293 cells expressing MCR-1
[2] = TRG 2414 library, inhibition of binding of 125I-HP 467, HEK 293 cells expressing MCR-4
[3] = inhibition of binding of 125I-HP 467, HEK 293 cells expressing MCR-1
[4] = inhibition of binding of 125I-HP 467, HEK 293 cells expressing MCR-4
[5] = competition with 125I-HP 467, HEK 293 cells expressing MCR-1
[6] = competition with 125I-HP 467, HEK 293 cells expressing MCR-4
[7] = inhibition of binding of 125I-HP 467, HEK 293 cells expressing MCR-1, TRG 2414 library
[8] = inhibition of binding of 125I-HP 467, HEK 293 cells expressing MCR-4, TRG 2414 library
[9] = TRG 2406 and TRG 2407 libraries, inhibition of binding of 125I-HP 467
[10] = TRG 2408 and TRG 2409 libraries, inhibition of 125I-HP 467 binding

T1 sequence (Q01726 whole entry): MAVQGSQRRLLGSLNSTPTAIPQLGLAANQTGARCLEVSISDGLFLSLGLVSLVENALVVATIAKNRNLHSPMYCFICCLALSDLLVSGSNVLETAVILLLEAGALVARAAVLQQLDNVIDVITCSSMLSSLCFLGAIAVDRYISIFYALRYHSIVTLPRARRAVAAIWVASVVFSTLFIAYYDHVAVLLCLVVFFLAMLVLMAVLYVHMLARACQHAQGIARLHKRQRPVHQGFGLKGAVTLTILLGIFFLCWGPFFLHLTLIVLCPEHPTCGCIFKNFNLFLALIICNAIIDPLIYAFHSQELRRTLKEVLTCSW

NCC(CCCCN1Cc2ccccc2C(CNCc2ccccc2C(F)(F)F)C1c1ccccc1Br)NCCc1ccccc1 (stereo not drawn) [Cmpd 202]
IC50 (MCR-1; [1]): 21800 nM
IC50 (MCR-4; [2]): 34100 nM

COc1cccc(CCNCC2c3ccccc3CN(CCCCC(CN)NCc3ccccc3)C2c2cccc(C(F)(F)F)c2)c1 (stereo not drawn) [TRG 2421-47]
IC50 (MCR-1; [3]): 2710 nM
IC50 (MCR-4; [4]): 1370 nM

CCCCNc1ccc(C2C(CN)c3ccccc3CN2CCCC(CN)NCc2ccccc2)cc1 (stereo not drawn) [TRG 2409-224]
IC50 (MCR-1; [5]): 120 nM
IC50 (MCR-4; [6]): 1320 nM

CCCOc1ccc(C2C(CNCCc3cccc(Cl)c3)c3ccccc3CN2CCCCC(CN)NCC(C)c2ccc(CC(C)C)cc2)cc1 (stereo not drawn) [TRG 2414-176]
IC50 (MCR-1; [7]): 21900 nM
MC-4 IC50 (MCR-4; [8]): no fit

COCCNC(CN)CCCN1Cc2ccccc2C(CN)C1c1ccc(-c2ccccc2)cc1 (stereo not drawn) [TRG 2411-146]
IC50 (MCR-1; [5]): 1220 nM
IC50 (MCR-4; [6]): 1460 nM

NCC(N)CCCCN1Cc2ccccc2C(CNC2CCCCCC2)C1c1ccc(Cl)cc1Cl (mixture of isomers) [TRG 2414-33]
IC50 (MCR-1; [7]): 1900 nM
IC50 (MCR-4; [8]): 720 nM

COc1ccccc1CCNCC1c2ccccc2CN(CCCCC(N)CN)C1c1ccc(Cl)cc1Cl (mixture of isomers) [TRG 2414-9]
IC50 (MCR-1; [7]): 1100 nM
IC50 (MCR-4; [8]): 700 nM

CNC(CN)CN1Cc2ccccc2C(CNCc2ccccc2O)C1c1cccc(Oc2ccc(OC)cc2)c1 (stereo not drawn) [TRG 2406-6]
IC50 (MCR-1; [9]): 3170 nM
IC50 (MCR-4; [9]): 1360 nM

COc1ccc(CCNCC2c3ccccc3CN(CCCCC(CN)NCc3ccccc3)C2c2ccccc2Br)cc1 (stereo not drawn) [Cmpd 227]
IC50 (MCR-1; [1]): 4490 nM
IC50 (MCR-4; [2]): 3710 nM

NCC(CCCCN1Cc2ccccc2C(CNCCc2cccc(Cl)c2)C1c1cccc(Oc2ccccc2)c1)NCCc1ccccc1 (stereo not drawn) [TRG 2414-94]
IC50 (MCR-1; [7]): 16900 nM
IC50 (MCR-4; [8]): 8200 nM

COc1cccc(CCNCC2c3ccccc3CN(CCCCC(CN)NCc3ccc(Br)cc3)C2c2cc(C(F)(F)F)cc(C(F)(F)F)c2)c1 (stereo not drawn) [TRG 2421-38]
IC50 (MCR-1; [3]): 7470 nM
IC50 (MCR-4; [4]): 1340 nM

CCNc1ccc(C2C(CNCCc3ccccc3)c3ccccc3CN2CCCC(CN)NCc2ccccc2CNCc2ccccc2)cc1 (stereo not drawn) [TRG 2420-14]
IC50 (MCR-1; [3]): 135 nM
IC50 (MCR-4; [4]): 290 nM

CCNc1ccc(C2C(CNCc3ccccc3OC)c3ccccc3CN2CCC(CN)NCCN)cc1 (stereo not drawn) [TRG 2408-89]
IC50 (MCR-1; [10]): 1820 nM
IC50 (MCR-4; [10]): 21700 nM

COc1ccc(CNC(CN)CCCCN2Cc3ccccc3C(CNCCc3ccc(Cl)cc3)C2c2cc(C(F)(F)F)cc(C(F)(F)F)c2)cc1 (stereo not drawn) [TRG 2421-34]
IC50 (MCR-1; [3]): 4980 nM
IC50 (MCR-4; [4]): 2640 nM

CNC(CN)CCCCN1Cc2ccccc2C(CO)C1c1ccc(Cl)cc1Cl (stereo not drawn) [TRG 2407-40]
IC50 (MCR-1; [9]): 4740 nM
IC50 (MCR-4; [9]): 4940 nM

NCC(CCCCN1Cc2ccccc2C(CNC2CCCCC2)C1c1ccc(-c2ccccc2)cc1)NCC1CCCCC1 (stereo not drawn) [TRG 2411-21]
IC50 (MCR-1; [5]): 270 nM
IC50 (MCR-4; [6]): 1010 nM

CC(C)Cc1ccc(C(C)CNC(CN)CCCCN2Cc3ccccc3C(CNCCc3cccc(Cl)c3)C2c2cccc(Oc3ccccc3)c2)cc1 (stereo not drawn) [TRG 2414-96]
MC-1 IC50 (MCR-1; [7]): no fit
IC50 (MCR-4; [8]): 50600 nM

CCCOc1ccc(C2C(CNC3CCCCC3)c3ccccc3CN2CCCCC(N)CN)cc1 (stereo not drawn) [Cmpd 197]
IC50 (MCR-1; [1]): 419 nM
IC50 (MCR-4; [2]): 12600 nM

CNC(CN)CCCCN1Cc2ccccc2C(CNCc2ccc(C(F)(F)F)cc2)C1c1ccc(Cl)cc1Cl (stereo not drawn) [TRG 2407-20]
IC50 (MCR-1; [9]): 3780 nM
IC50 (MCR-4; [9]): 3490 nM

CCNc1ccc(C2C(CN)c3ccccc3CN2CCCC(CN)NCCCCNCc2ccccc2)cc1 (stereo not drawn) [TRG 2419-6]
IC50 (MCR-1; [3]): 82 nM
IC50 (MCR-4; [4]): 6410 nM

NCC(CCCCN1Cc2ccccc2C(CNC2CCCCC2)C1c1ccc(Oc2ccccc2)cc1)NCc1ccccc1 (stereo not drawn) [TRG 2414-159]
IC50 (MCR-1; [7]): 1400 nM
IC50 (MCR-4; [8]): 9820 nM

NCCNC(CN)CCCN1Cc2ccccc2C(CNC2CCCCC2)C1c1ccc(Cl)cc1Cl (stereo not drawn) [TRG 2408-73]
IC50 (MCR-1; [10]): 1080 nM
IC50 (MCR-4; [10]): 4050 nM

NC[C@H](CCCCN1Cc2ccccc2C(CNCCc2cccc(Cl)c2)C1c1ccc(Cl)cc1Cl)NCc1ccccc1 (stereo partly drawn) [TRG 2414-15]
IC50 (MCR-1; [7]): 6410 nM
IC50 (MCR-4; [8]): 6930 nM

COc1ccccc1CCNCC1c2ccccc2CN(CCCCC(CN)NCCc2ccccc2)C1c1ccccc1Br (stereo not drawn) [Cmpd 210]
IC50 (MCR-1; [1]): 3700 nM
IC50 (MCR-4; [2]): 4430 nM

CCNc1ccc(C2C(CNCCc3ccccc3)c3ccccc3CN2CCCC(CN)NCc2ccccc2CNC(C)C)cc1 (stereo not drawn) [TRG 2420-13]
IC50 (MCR-1; [3]): 65 nM
IC50 (MCR-4; [4]): 670 nM

COc1ccc(CCNCC2c3ccccc3CN(CCCCC(CN)NCc3ccc(C)cc3)C2c2cc(C(F)(F)F)cc(C(F)(F)F)c2)cc1 (stereo not drawn) [TRG 2421-12]
IC50 (MCR-1; [3]): 2570 nM
IC50 (MCR-4; [4]): 1400 nM

CCCCNc1ccc(C2C(CN)c3ccccc3CN2CCCC(CN)NCC)cc1 (stereo not drawn) [TRG 2411-218]
IC50 (MCR-1; [3]): 70 nM
IC50 (MCR-4; [4]): 9590 nM

CCOc1ccccc1CNCC1c2ccccc2CN(CCCCC(CN)NCc2ccccc2)C1c1cc(C(F)(F)F)cc(C(F)(F)F)c1 (stereo not drawn) [TRG 2414-47]
IC50 (MCR-1; [7]): 7740 nM
IC50 (MCR-4; [8]): 7510 nM

NCC(CCCN1Cc2ccccc2C(CO)C1c1ccc(O)cc1)NCCC1CCCCC1 (stereo not drawn) [TRG 2415-2]
IC50 (MCR-1; [3]): 2240 nM
IC50 (MCR-4; [4]): 940 nM

CNC(CN)CCCCN1Cc2ccccc2C(CNCc2ccccc2O)C1c1cccc(Oc2ccc(OC)cc2)c1 (stereo not drawn) [TRG 2406-7]
IC50 (MCR-1; [9]): 1230 nM
IC50 (MCR-4; [9]): 1740 nM

COc1ccc(CNCC2c3ccccc3CN(CCCCC(CN)NCCc3ccccc3)C2c2cc(C(F)(F)F)cc(C(F)(F)F)c2)cc1 (stereo not drawn) [TRG 2414-62]
IC50 (MCR-1; [7]): 15500 nM
IC50 (MCR-4; [8]): 6870 nM

CCNc1ccc(C2C(CNc3cccc(OCC)c3)c3ccccc3CN2CCCCC(CN)NC)cc1 (stereo not drawn) [TRG 2407-46]
IC50 (MCR-1; [9]): 1630 nM
IC50 (MCR-4; [9]): 16400 nM

CN[C@@H](CN)CCCCN1Cc2ccccc2C(CNC2CCCCC2)C1c1ccc(Cl)cc1Cl (stereo partly drawn) [TRG 2408-40]
IC50 (MCR-1; [10]): 2430 nM
IC50 (MCR-4; [10]): 8280 nM

NCC(CCCN1Cc2ccccc2C(CNCCc2ccccc2)C1c1ccc(-c2ccccc2)cc1)NCCc1ccccc1 (stereo not drawn) [TRG 2411-116]
IC50 (MCR-1; [5]): 1240 nM
IC50 (MCR-4; [6]): 1980 nM

CCCOc1ccc(C2C(CNCCc3ccc(OC)cc3)c3ccccc3CN2CCCCC(N)CN)cc1 (stereo not drawn) [Cmpd 185]
IC50 (MCR-1; [1]): 542 nM
IC50 (MCR-4; [2]): 4260 nM

CCCCCNc1ccc(C2C(CNCCc3ccccc3)c3ccccc3CN2CCCC(CN)NC)cc1 (stereo not drawn) [TRG 2412-16]
IC50 (MCR-1; [3]): 90 nM
IC50 (MCR-4; [4]): 1480 nM

NCC(N)CCCCN1Cc2ccccc2C(CNCc2ccccc2C(F)(F)F)C1c1cc(C(F)(F)F)cc(C(F)(F)F)c1 (stereo not drawn) [TRG 2414-41]
IC50 (MCR-1; [7]): 34200 nM
IC50 (MCR-4; [8]): 15600 nM

COc1ccc(CCNCC2c3ccccc3CN(CCCCC(CN)NCc3ccccc3)C2c2cccc(Oc3ccccc3)c2)cc1 (stereo not drawn) [TRG 2414-107]
IC50 (MCR-1; [7]): 6550 nM
IC50 (MCR-4; [8]): 8210 nM

NCC(N)CCN1Cc2ccccc2C(CNC2CCCCC2)C1c1ccc(Cl)cc1Cl (stereo not drawn) [TRG 2408-101]
IC50 (MCR-1; [10]): 7890 nM
IC50 (MCR-4; [10]): 5680 nM
